Measured values from PMC11252418, “Specific glycine-dependent enzyme motion determines the potency of conformation selective inhibitors of threonyl-tRNA synthetase” (Communications Biology, 2024).
Where “and” joins values, the source holds several entries; their conditions need not be identical. Equal values may be shown once. Read-outs that look alike come from different tables or passages of the source.

Experiments:
EcThrRS_G463A = molecular target: T1, EcThrRS_G463A (Escherichia coli, UniProt P0A8M3, G463A); test: Thermal shift assay (TSA); assay type: binding
T1 construct: The E. coli ThrRS (residues 242-642, Supplementary Note 1) wild type; 6xHis (C); made in house; host or cells: E. coli BL21 (DE3)
Description: (§1) The EcThrRS_WT and L489M/G463S/G463S_Q484A/G463A/A316N mutant proteins, ObaO_WT and ObaO_S464G mutant proteins were prepared at 2 μM in buffer containing 25 mM Tris-HCl pH 7.5, 200 mM NaCl, and 20 μM OB (GlpBio, US) or BN (GlpBio, US) or ddH2O in equal volumes since the compounds were diluted with ddH2O to 1 mM as stocks. […] SYPRO orange dye (Sigma, USA) was diluted in assay buffer containing 25 mM Tris-HCl pH 7.5 and 200 mM NaCl to a 40× concentration, and was added to the mixture to a final 4× concentration. Aliquots (20 μL) were added to a 96-well PCR plate. After complete mixing, the final solutions were heated from 25 to 95 °C at a rate of 0.015 °C/s, and fluorescence signals were monitored by QuantStudio 3 (Applied Biosystems by Thermo Fisher Scientific, USA). The melting temperature (Tm) was calculated through a previously established method[56],[57].

EcThrRS_L489M = molecular target: T2, EcThrRS_L489M (Escherichia coli, UniProt P0A8M3, L489M); test: Thermal shift assay (TSA); assay type: binding
T2 construct: The E. coli ThrRS (residues 242-642, Supplementary Note 1) wild type; 6xHis (C); made in house; host or cells: E. coli BL21 (DE3)
Description: as §1

EcThrRS_G463S = molecular target: T3, EcThrRS_G463S (Escherichia coli, UniProt P0A8M3, G463S); test: Thermal shift assay (TSA); assay type: binding
T3 construct: The E. coli ThrRS (residues 242-642, Supplementary Note 1) wild type; 6xHis (C); made in house; host or cells: E. coli BL21 (DE3)
Description: as §1

EcThrRS_G463S_Q484A = molecular target: T4, EcThrRS_G463S_Q484A (Escherichia coli, UniProt P0A8M3, G463S/Q484A); test: Thermal shift assay (TSA); assay type: binding
T4 construct: The E. coli ThrRS (residues 242-642, Supplementary Note 1) wild type; 6xHis (C); made in house; host or cells: E. coli BL21 (DE3)
Description: as §1

EcThrRS_A316N = molecular target: T5, EcThrRS_A316N (Escherichia coli, UniProt P0A8M3, A316N); test: Thermal shift assay (TSA); assay type: binding
T5 construct: The E. coli ThrRS (residues 242-642, Supplementary Note 1) wild type; 6xHis (C); made in house; host or cells: E. coli BL21 (DE3)
Description: as §1

ObaO_WT [1] = test: ATP hydrolysis assay; assay type: biochemical, Pseudomonas fluorescens; conditions: for ATP hydrolysis activity, inhibitory curve data point: OB, replicates, sheet Fig.S11b
Description: (§2) 200 nM EcThrRS wide type and mutants, ObaO and ObaO_S464G mutant were incubated with serially diluted OB (0 to 10 μM for EcThrRS, 0 to 40 μM for ObaO) in a buffer containing 25 mM HEPES pH 7.5, 50 mM NaCl, 40 mM MgCl2, 30 mM KCl, 0.01 mg/mL bovine serum albumin (BSA), and 0.004% Tween-20 at 37 °C for 4 h and then mixed 1:1 with a substrate mixture containing 4 μM ATP, 40 μM L-threonine, 25 mM HEPES pH 7.5, 50 mM NaCl, 40 mM MgCl2, 30 mM KCl, 0.01 mg/mL BSA, and 0.004% Tween-20. The ATP hydrolysis reaction was performed at 37 °C for 4 h.
(§3) After incubation, the detection solution from the Kinase-Glo® luminescent kit (Promega, USA) was added to the reaction system at a 1:1 ratio, and the mixture was gently shaken for 10 min. The chemiluminescence signal was measured using a microplate reader (Tecan, USA). All experiments were performed in four replicates. The data were processed using GraphPad Prism 8 software.

ObaO_S464G [2] = test: ATP hydrolysis assay; assay type: biochemical, Pseudomonas fluorescens; conditions: for ATP hydrolysis activity, inhibitory curve data point: OB, replicates, sheet Fig.S11b
Description: as §2, §3

ObaO_WT [3] = test: Thermal shift assay (TSA); assay type: binding, Pseudomonas fluorescens
Description: as §1

ObaO_S464G [4] = test: Thermal shift assay (TSA); assay type: binding, Pseudomonas fluorescens
Description: as §1

[5] = 2 μM protein, 20 μM compound, mean n = 4, read-out: ΔTm (increase of Tm)
[6] = 2 μM protein, 20 μM compound, mean n = 4

T1 sequence (P0A8M3 242-642 G463A): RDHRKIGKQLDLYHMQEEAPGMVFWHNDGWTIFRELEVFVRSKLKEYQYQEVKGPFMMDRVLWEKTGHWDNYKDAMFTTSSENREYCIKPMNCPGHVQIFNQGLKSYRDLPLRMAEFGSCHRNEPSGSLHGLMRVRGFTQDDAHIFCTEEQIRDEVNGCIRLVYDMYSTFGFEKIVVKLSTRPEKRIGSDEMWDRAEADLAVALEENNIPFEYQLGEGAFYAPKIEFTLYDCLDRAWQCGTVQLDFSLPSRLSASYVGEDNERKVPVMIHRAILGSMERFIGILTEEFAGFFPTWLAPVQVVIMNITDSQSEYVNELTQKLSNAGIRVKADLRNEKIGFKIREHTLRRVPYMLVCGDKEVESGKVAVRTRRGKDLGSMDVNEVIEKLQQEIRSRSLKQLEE
T4 sequence (P0A8M3 242-642 G463S/Q484A): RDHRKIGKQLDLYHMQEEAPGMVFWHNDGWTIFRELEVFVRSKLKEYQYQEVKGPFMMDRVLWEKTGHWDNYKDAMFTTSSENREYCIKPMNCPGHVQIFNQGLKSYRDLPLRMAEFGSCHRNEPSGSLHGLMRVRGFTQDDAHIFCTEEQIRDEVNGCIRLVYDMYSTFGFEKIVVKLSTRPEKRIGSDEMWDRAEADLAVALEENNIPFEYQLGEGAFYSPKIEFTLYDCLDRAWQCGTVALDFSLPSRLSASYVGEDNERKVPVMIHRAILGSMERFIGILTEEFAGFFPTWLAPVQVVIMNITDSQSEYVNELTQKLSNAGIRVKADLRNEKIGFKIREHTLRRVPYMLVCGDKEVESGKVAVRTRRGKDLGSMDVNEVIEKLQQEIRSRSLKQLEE
T2 sequence (P0A8M3 242-642 L489M): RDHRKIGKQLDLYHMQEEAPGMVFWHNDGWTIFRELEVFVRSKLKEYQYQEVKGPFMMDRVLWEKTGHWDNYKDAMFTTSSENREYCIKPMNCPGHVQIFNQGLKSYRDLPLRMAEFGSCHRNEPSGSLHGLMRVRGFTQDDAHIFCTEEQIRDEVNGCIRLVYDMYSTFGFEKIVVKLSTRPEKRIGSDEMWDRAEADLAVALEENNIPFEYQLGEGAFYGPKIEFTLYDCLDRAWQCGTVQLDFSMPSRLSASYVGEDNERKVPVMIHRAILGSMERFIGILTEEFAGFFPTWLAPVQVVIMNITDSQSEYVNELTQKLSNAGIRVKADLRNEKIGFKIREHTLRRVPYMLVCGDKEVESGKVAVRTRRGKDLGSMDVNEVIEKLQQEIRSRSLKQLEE
T3 sequence (P0A8M3 242-642 G463S): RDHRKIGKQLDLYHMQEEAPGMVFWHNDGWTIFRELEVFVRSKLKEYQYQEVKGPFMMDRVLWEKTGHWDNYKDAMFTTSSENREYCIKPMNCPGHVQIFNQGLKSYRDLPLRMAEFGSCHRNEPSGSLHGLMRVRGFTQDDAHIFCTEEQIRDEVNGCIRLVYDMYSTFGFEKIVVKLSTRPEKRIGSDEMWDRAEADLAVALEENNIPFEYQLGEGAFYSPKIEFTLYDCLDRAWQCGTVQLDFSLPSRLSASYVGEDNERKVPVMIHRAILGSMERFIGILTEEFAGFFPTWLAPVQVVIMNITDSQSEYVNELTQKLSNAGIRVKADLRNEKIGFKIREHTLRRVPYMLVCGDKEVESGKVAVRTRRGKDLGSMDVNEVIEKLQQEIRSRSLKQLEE
T5 sequence (P0A8M3 242-642 A316N): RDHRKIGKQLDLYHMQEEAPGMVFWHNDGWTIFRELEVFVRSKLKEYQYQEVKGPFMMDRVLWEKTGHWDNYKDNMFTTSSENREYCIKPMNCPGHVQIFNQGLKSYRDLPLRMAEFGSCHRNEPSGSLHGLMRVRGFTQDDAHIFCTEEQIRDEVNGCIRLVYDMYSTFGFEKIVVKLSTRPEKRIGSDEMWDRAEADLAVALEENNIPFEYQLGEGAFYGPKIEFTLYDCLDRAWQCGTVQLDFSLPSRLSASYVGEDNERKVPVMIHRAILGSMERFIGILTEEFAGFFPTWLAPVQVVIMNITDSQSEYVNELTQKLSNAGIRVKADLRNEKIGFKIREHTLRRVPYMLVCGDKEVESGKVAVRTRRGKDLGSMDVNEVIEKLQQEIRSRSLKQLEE

**Q.** What does the source list for O=C(N[C@@H]1C(=O)O[C@@H]1Cc1ccc([N+](=O)[O-])cc1)c1cccc(O)c1O [OB, Obafluorin]?
**A.** ΔTm at 20 µM (EcThrRS_G463A; [5]): 19.5 °C; ΔTm less than that of EcThrRS_WT (EcThrRS_G463A; EcThrRS_G463A vs WT, same compound): 14.0 °C; ΔTm less than that increased by 36j (EcThrRS_G463A; difference OB vs 36j on EcThrRS_G463A): 1.3 °C; ΔTm at 20 µM (EcThrRS_G463A; source data sheet Fig.5a, ThrRS_G463A, read-out: ΔTm, single replicates): 20.4 °C; ΔTm at 20 µM (EcThrRS_L489M; [5]): 22.6 °C; ΔTm at 20 µM (EcThrRS_L489M; source data sheet Fig.2a, ThrRS_L489M, read-out: ΔTm, single replicates): 23 °C; ΔTm at 20 µM (EcThrRS_G463S; [5]): 13.3 °C; ΔTm at 20 µM (EcThrRS_G463S; source data sheet Fig.2a, ThrRS_G463S, read-out: ΔTm, single replicates): 16.1 °C; ΔTm at 20 µM (EcThrRS_G463S_Q484A; [5]): 17.2 °C; ΔTm less than the effect of 36j (EcThrRS_G463S_Q484A; difference OB vs 36j on EcThrRS_G463S_Q484A): 10 °C; ΔTm at 20 µM (EcThrRS_G463S_Q484A; source data sheet Fig.3c, ThrRS_G463S_Q484A, read-out: ΔTm, single replicates): 17.5 °C; ΔTm at 20 µM (EcThrRS_A316N; [5]): 33.4 °C; ΔTm at 20 µM (EcThrRS_A316N; source data sheet Fig.S4a, ThrRS_A316N, read-out: ΔTm, single replicates): 33.4 °C; inhibitory effect (ObaO_WT [1]; ATP hydrolysis activity): no inhibitory effect; ATP hydrolysis activity, inhibitory curve data point (ObaO_WT [1]; Log10 Conc. 1.290, ObaO_WT): 107.974 and 109.176 and 107.694 and 98.285; ATP hydrolysis activity, inhibitory curve data point (ObaO_WT [1]; Log10 Conc. 1.591, ObaO_WT): 108.081 and 109.543 and 108.587 and 102.335; ATP hydrolysis activity, inhibitory curve data point (ObaO_WT [1]; Log10 Conc. 1.892, ObaO_WT): 104.532 and 105.736 and 104.839 and 104.593; ATP hydrolysis activity, inhibitory curve data point (ObaO_WT [1]; Log10 Conc. 2.193, ObaO_WT): 105.347 and 104.330 and 104.759 and 104.369; ATP hydrolysis activity, inhibitory curve data point (ObaO_WT [1]; Log10 Conc. 2.494, ObaO_WT): 105.496 and 103.616 and 104.222 and 104.732; ATP hydrolysis activity, inhibitory curve data point (ObaO_WT [1]; Log10 Conc. 2.796, ObaO_WT): 106.437 and 103.177 and 103.705 and 104.207; ATP hydrolysis activity, inhibitory curve data point (ObaO_WT [1]; Log10 Conc. 3.097, ObaO_WT): 106.181 and 102.182 and 103.687 and 102.015; ATP hydrolysis activity, inhibitory curve data point (ObaO_WT [1]; Log10 Conc. 3.398, ObaO_WT): 106.327 and 105.039 and 104.877 and 99.875; ATP hydrolysis activity, inhibitory curve data point (ObaO_WT [1]; Log10 Conc. 3.699, ObaO_WT): 106.394 and 102.812 and 104.598 and 101.892; ATP hydrolysis activity, inhibitory curve data point (ObaO_WT [1]; Log10 Conc. 4.000, ObaO_WT): 107.419 and 105.942 and 102.834 and 91.914; ATP hydrolysis activity, inhibitory curve data point (ObaO_WT [1]; Log10 Conc. 4.301, ObaO_WT): 100.516 and 99.049 and 100.129 and 101.285; IC50 (ObaO_S464G [2]; ATP hydrolysis activity): 3.9 µM; ATP hydrolysis activity, inhibitory curve data point (ObaO_S464G [2]; Log10 Conc. 1.290, ObaO_S464G): 99.512 and 99.495 and 99.321 and 98.415; ATP hydrolysis activity, inhibitory curve data point (ObaO_S464G [2]; Log10 Conc. 1.591, ObaO_S464G): 100.192 and 100.232 and 100.159 and 99.124; ATP hydrolysis activity, inhibitory curve data point (ObaO_S464G [2]; Log10 Conc. 1.892, ObaO_S464G): 100.052 and 100.356 and 99.951 and 99.355; ATP hydrolysis activity, inhibitory curve data point (ObaO_S464G [2]; Log10 Conc. 2.193, ObaO_S464G): 99.838 and 99.793 and 100.063 and 99.551; ATP hydrolysis activity, inhibitory curve data point (ObaO_S464G [2]; Log10 Conc. 2.494, ObaO_S464G): 100.255 and 99.793 and 99.917 and 100.035; ATP hydrolysis activity, inhibitory curve data point (ObaO_S464G [2]; Log10 Conc. 2.796, ObaO_S464G): 99.484 and 99.326 and 99.169 and 98.438; ATP hydrolysis activity, inhibitory curve data point (ObaO_S464G [2]; Log10 Conc. 3.097, ObaO_S464G): 97.897 and 97.852 and 97.621 and 97.352; ATP hydrolysis activity, inhibitory curve data point (ObaO_S464G [2]; Log10 Conc. 3.398, ObaO_S464G): 93.815 and 92.992 and 93.578 and 91.403; ATP hydrolysis activity, inhibitory curve data point (ObaO_S464G [2]; Log10 Conc. 3.699, ObaO_S464G): 77.343 and 76.749 and 76.793 and 77.009; ATP hydrolysis activity, inhibitory curve data point (ObaO_S464G [2]; Log10 Conc. 4.000, ObaO_S464G): 40.598 and 39.832 and 38.831 and 45.976; ATP hydrolysis activity, inhibitory curve data point (ObaO_S464G [2]; Log10 Conc. 4.301, ObaO_S464G): -1.615 and -1.887 and 0.161 and 3.342; ΔTm (increase of Tm) (ObaO_WT [3]; [6]): 3.2 °C; ΔTm, single replicates (ObaO_WT [3]; source data sheet Fig.S11a, ObaO_WT, in °C (unit assumed)): 3.257 and 4.712 and 2.142 and 2.576; ΔTm (increase of Tm) (ObaO_S464G [4]; [6]): 14.1 °C; ΔTm, single replicates (ObaO_S464G [4]; source data sheet Fig.S11a, ObaO_S464G, in °C (unit assumed)): 14.753 and 14.195 and 14.134 and 13.328
